Data: patent US9321790B2, “Pyrimidinone derivatives as antimalarial agents” (SANOFI, priority 2012, dated 2016)
pIC50: −log10 of the molar value.

What was measured:
human PI3Kα = human PI3Kα (Homo sapiens (Human), UniProt P42336); experiment: Human PI3Kα activity test (luciferin/luciferase ATP consumption, KinaseGlo); assay type: biochemical; conditions: PI3Kα (p110α/p85α), 50 μM PIP2, 2 μM ATP, 90 minutes; read-out: IC50 Human PI3Kα
Procedure: The test uses a luciferin/luciferase system to measure the concentration of ATP and its consumption during the enzymatic reaction.
After 90 minutes, the reaction is quenched by adding 20 μl/well of KinaseGlo reagent (Promega V6713). After 10 minutes in the dark, the luminescence is read using a PHERAStar microplate reader (reading at 0.8 sec/well).

[1] = tested on: Plasmodium falciparum (strain NF54); experiment: Antimalarial activity test: growth of Plasmodium falciparum in infected human erythrocytes, 3H-hypoxanthine incorporation; assay type: cell-based; conditions: strain NF54 sensitive to chloroquine, 72 h total incubation
Outline: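 Chloroquine-sensitive NF54 parasites in human erythrocytes (1.25% hematocrit, 0.15% parasitemia) were grown in hypoxanthine-free RPMI 1640 with HEPES and Albumax II, with compound in twofold serial dilution, at 37 °C under 93% N2/4% CO2/3% O2. After 48 h, 3H-hypoxanthine (0.5 μCi) was added for 24 h. Scintillation counts versus drug-free control gave IC50.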

[2] = Plasmodium falciparum, Erythrocyte

Chain of human PI3Kα (P42336 whole entry): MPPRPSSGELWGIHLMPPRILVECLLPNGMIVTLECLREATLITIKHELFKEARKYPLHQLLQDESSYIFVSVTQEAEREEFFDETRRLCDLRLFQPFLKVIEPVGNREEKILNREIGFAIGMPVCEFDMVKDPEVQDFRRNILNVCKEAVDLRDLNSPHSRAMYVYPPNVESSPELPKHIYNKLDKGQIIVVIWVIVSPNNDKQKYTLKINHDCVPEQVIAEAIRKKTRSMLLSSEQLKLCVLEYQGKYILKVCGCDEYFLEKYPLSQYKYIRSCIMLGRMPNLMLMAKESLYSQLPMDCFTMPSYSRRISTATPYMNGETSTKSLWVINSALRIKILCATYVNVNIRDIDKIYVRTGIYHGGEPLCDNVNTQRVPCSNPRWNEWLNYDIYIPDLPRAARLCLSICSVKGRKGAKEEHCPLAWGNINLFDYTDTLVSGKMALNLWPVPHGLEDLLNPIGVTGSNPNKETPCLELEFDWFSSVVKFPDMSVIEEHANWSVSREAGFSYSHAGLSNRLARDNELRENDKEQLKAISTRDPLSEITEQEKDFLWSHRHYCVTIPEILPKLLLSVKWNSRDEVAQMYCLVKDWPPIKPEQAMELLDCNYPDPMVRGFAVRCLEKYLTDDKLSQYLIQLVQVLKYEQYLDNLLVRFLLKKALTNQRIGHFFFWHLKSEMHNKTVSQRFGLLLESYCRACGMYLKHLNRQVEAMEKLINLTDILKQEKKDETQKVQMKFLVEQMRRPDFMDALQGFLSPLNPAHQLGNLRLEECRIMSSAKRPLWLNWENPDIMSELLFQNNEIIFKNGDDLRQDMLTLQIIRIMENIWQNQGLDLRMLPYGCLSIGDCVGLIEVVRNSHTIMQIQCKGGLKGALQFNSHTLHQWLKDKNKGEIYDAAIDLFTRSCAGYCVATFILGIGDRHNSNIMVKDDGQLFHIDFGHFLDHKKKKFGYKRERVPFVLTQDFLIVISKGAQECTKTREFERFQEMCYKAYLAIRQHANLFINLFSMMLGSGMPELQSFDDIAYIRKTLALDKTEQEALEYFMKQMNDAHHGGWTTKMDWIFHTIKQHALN
Chain of human PI3Kα (P27986 whole entry partner): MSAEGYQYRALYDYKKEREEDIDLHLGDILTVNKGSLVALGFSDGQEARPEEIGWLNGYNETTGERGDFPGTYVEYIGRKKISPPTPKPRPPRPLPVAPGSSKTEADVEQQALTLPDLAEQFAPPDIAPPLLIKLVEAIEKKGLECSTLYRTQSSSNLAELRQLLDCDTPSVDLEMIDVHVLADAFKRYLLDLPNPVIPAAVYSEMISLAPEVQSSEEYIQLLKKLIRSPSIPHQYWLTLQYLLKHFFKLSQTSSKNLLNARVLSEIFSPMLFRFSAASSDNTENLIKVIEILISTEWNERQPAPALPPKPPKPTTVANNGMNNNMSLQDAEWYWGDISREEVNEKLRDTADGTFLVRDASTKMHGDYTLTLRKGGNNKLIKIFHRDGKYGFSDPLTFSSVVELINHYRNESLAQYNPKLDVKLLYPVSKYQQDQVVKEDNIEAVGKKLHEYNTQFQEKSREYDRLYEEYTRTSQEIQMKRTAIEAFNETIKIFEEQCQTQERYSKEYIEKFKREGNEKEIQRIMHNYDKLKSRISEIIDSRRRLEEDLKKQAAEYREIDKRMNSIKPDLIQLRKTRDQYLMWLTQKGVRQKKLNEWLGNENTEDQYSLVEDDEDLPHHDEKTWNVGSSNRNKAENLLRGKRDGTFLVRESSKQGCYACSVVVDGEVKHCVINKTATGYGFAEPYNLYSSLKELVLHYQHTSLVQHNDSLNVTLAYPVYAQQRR

**Q.** `O=c1cc(N2C[C@@H]3C[C@H]2CO3)nc2n1CC[C@@H](C(F)(F)F)N2CC1CCOCC1` [Compound 93, (8S)-2-(1S,4S)-2-oxa-5-azabicyclo[2.2.1]hept-5-yl-9-(tetrahydropyran-4-ylmethyl)-8-trifluoromethyl-6,7,8,9-tetrahydropyrimido[1,2-a]pyrimidin-4-one] was tested. Which pIC50 (human PI3Kα) did it give?
**A.** 6.11

**Q.** And the pIC50 [1, 2]?
**A.** 8.40

**Q.** `O=CN1CCC(CCN2c3nc(N4C[C@@H]5C[C@H]4CO5)cc(=O)n3CC[C@H]2C(F)(F)F)CC1` [Compound 90, 4-[2-((2S)-8-(1S,4S)-2-oxa-5-azabicyclo[2.2.1]hept-5-yl-6-oxo-2-trifluoromethyl-3,4-dihydro-2H,6H-pyrimido[1,2-a]pyrimidin-1-yl)ethyl]piperidine-1-carbaldehyde] was tested. Which pIC50 (human PI3Kα) did it give?
**A.** 5.62

**Q.** And the pIC50 [1, 2]?
**A.** 8.70

**Q.** `O=C(CN1c2nc(N3C[C@@H]4C[C@H]3CO4)cc(=O)n2CC[C@H]1C(F)(F)F)c1ccc(OC(F)F)nc1` [Compound 114, (S)-9-[2-(6-difluoromethoxypyrid-3-yl)-2-oxoethyl]-2-(1S,4S)-2-oxa-5-azabicyclo[2.2.1]hept-5-yl-8-trifluoromethyl-6,7,8,9-tetrahydropyrimido[1,2-a]pyrimidin-4-one] was tested. Which pIC50 (human PI3Kα) did it give?
**A.** < 5.00

**Q.** What about the pIC50 [1, 2] of the same compound?
**A.** 6.61

**Q.** `O=c1cc(N2C[C@@H]3C[C@H]2CO3)nc2n1CC[C@@H](C(F)(F)F)N2Cc1cccc2cnccc12` [Compound 109, (8S)-9-Isoquinolin-5-ylmethyl-2-(1S,4S)-2-oxa-5-azabicyclo[2.2.1]hept-5-yl-8-trifluoromethyl-6,7,8,9-tetrahydropyrimido[1,2-a]pyrimidin-4-one] was tested. Which pIC50 (human PI3Kα) did it give?
**A.** 5.11

**Q.** And the pIC50 [1, 2]?
**A.** 7.10

**Q.** What does the source list for `CNc1ccc(C(=O)CN2c3nc(N4C[C@@H]5C[C@H]4CO5)cc(=O)n3CC[C@H]2C(F)(F)F)cn1` [Compound 5, (8S)-9-[2-(6-methylaminopyrid-3-yl)-2-oxoethyl]-2-(1S,4S)-2-oxa-5-azabicyclo[2.2.1]hept-5-yl-8-trifluoromethyl-6,7,8,9-tetrahydropyrimido[1,2-a]pyrimidin-4-one]?
**A.** pIC50 (human PI3Kα): 5.09; pIC50 [1, 2]: 7.02

**Q.** `O=C(CN1c2nc(N3C[C@@H]4C[C@H]3CO4)cc(=O)n2CC[C@H]1C(F)(F)F)c1ccccn1` [Compound 68, (8S)-2-(1S,4S)-2-oxa-5-azabicyclo[2.2.1]hept-5-yl-9-(2-oxo-2-pyrid-2-ylethyl)-8-trifluoromethyl-6,7,8,9-tetrahydropyrimido[1,2-a]pyrimidin-4-one] was tested. Which pIC50 (human PI3Kα) did it give?
**A.** 5.18

**Q.** And the pIC50 [1, 2]?
**A.** 7.57

**Q.** Which results are given for `Cc1ccc(C(=O)CN2c3nc(N4C[C@@H]5C[C@H]4CO5)cc(=O)n3C[C@@]2(C)C(F)(F)F)cn1` [Compound 17, 2-methyl-1-[2-(6-methylpyrid-3-yl)-2-oxoethyl]-7-(1S,4S)-2-oxa-5-azabicyclo[2.2.1]hept-5-yl-2-((S)-trifluoromethyl)-2,3-dihydro-1H-imidazo[1,2-a]pyrimidin-5-one]?
**A.** pIC50 (human PI3Kα): ≤ 5.00; pIC50 [1, 2]: 6.80

**Q.** How did the pIC50 (human PI3Kα) turn out when `O=C(CN1c2nc(N3C[C@@H]4C[C@H]3CO4)cc(=O)n2CC[C@H]1C(F)(F)F)c1cccnc1C(F)(F)F` [Compound 60, (8S)-2-(1S,4S)-2-Oxa-5-azabicyclo[2.2.1]hept-5-yl-9-[2-oxo-2-(2-trifluoromethylpyrid-3-yl)ethyl]-8-trifluoromethyl-6,7,8,9-tetrahydropyrimido[1,2-a]pyrimidin-4-one] was run?
**A.** < 5.00

**Q.** And the pIC50 [1]?
**A.** 7.72

**Q.** What does the source list for `CCOc1ccc(C(=O)CN2c3nc(N4C[C@@H]5C[C@H]4CO5)cc(=O)n3CC[C@H]2C(F)(F)F)cn1` [Compound 35, (8S)-9-[2-(6-Ethoxypyrid-3-yl)-2-oxoethyl]-2-(1S,4S)-2-oxa-5-azabicyclo[2.2.1]hept-5-yl-8-trifluoromethyl-6,7,8,9-tetrahydropyrimido[1,2-a]pyrimidin-4-one]?
**A.** pIC50 (human PI3Kα): < 5.00; pIC50 [1, 2]: < 6.68
